Earlier results as cited in patent publication US11766396B2, “Kit and method for dyeing keratinous material by means of aminosilicone and a chromophoric compound” (Henkel AG & Co. KGaA, priority 2019, dated 2023).

How the values were obtained:
[1] = 25° C.
[2] = 5% solution in water

Row | Compound | pH value of solution in water [2] | solubility in water [1]
1 | O=S(=O)([O-])c1ccc(N=Nc2c(O)ccc3ccccc23)cc1.[Na+] [Acid Orange 7, sodium salt of 4-[(2-hydroxy-1-naphthyl)azo]benzene sulphonate] | – | more than 7 g/L
2 | Nc1cc(S(=O)(=O)[O-])cc2cc(S(=O)(=O)[O-])c(N=Nc3ccccc3)c(O)c12.[Na+].[Na+] [Acid Red 33, diantrium salt of 5-amino-4-hydroxy-3-(phenylazo)-naphthalene-2,7-disulphonate] | – | 2500 µg/mL
3 | O=C([O-])c1c(Cl)c(Cl)c(Cl)c(Cl)c1-c1c2c(Br)cc(=O)c(Br)c-2oc2c(Br)c(O)cc(Br)c12.O=C([O-])c1c(Cl)c(Cl)c(Cl)c(Cl)c1-c1c2c(Br)cc(=O)c(Br)c-2oc2c(Br)c(O)cc(Br)c12.[Na+].[Na+] [Acid Red 92, disodium salt of 3,4,5,6-tetrachloro-2-(1,4,5,8-tetrabromo-6-hydroxy-3-oxoxanthen-9-yl)benzoic acid] | – | greater than 10 g/L
4 | O=C([O-])C1=NN(c2ccc(S(=O)(=O)[O-])cc2)C(=O)C1N=Nc1ccc(S(=O)(=O)[O-])cc1.[Na+].[Na+].[Na+] (centres unmarked) [Acid Yellow 23, trisodium salt of 4,5-dihydro-5-oxo-1-(4-sulfophenyl)-4-((4-sulfophenyl)azo)-1H-pyrazole-3-carboxylic acid] | – | highly soluble
5 | O=P([O-])(O)O.[K+] [Potassium dihydrogen phosphate] | 4.4 | –
